Results as given in patent publication US9040527B2, “Pyrimidinediamine kinase inhibitors” (Rigel Pharmaceuticals, Inc., priority 2008, dated 2015).

Columns and labels:
PLK1 [1] = target: T1, PLK1 (Homo sapiens, UniProt P53350); assay: In vitro PLK1 ELISA assay (biochemical); parameters: purchased Cell Signalling 7728
Experimental: (§1) Inhibition of PLK1 was measured by quantifying phosphorylation of PLK1 substrates using chemiluminescent and fluorogenic probes. The protocols for these assays are provided below.
In Vitro PLK1 ELISA Assay
1. Preparation of Assay Plates.
Costar 96-well black or white solid flat high binding plates (Fisher Scientific, Catalog No. 07-200-591) were coated with Neutravidin (Pierce, Catalog No. 31000) using the following protocol. A 0.01 mg/mL solution of Neutravidin in 1× Phosphate Buffered Saline (“PBS”, Cellgro/Mediatech, Catalog No. 21-040-CV) was added to each well (100 μL/well) and was incubated for 18-24 hours at 4° C. The plates were then washed with 1× Phosphate Buffer Saline—Tween (“PBST”, Calbiochem, Catalog No. 524653) buffer using a plate washer. The plates were treated with bovine serum albumin (“BSA”, Sigma, Catalog No. A7906) to block non-specific binding sites, by adding a 2% BSA solution in 1×PBST buffer to each well (100 μL/well) and incubating the plates for 1 hour at room temperature. The plates were then washed with 1×PBST buffer using a plate washer.
2. PLK1-Catalyzed Phosphorylation Reaction
An aqueous buffer solution A having the following composition was prepared:
20 mM HEPES (Cellgro/Mediatech, Catalog No. 25-060Ci), pH 7.2;
5 mM MgCl2 (Sigma, Catalog No. M2393);
2 mM MnCl2.4H2O (EM Biosciences, Catalog No. MX0185-2);
1 mM Dithiothreitol (“DTT”, Fluka, Catalog No. B4184).
Next, the substrate solution B was prepared by adding 2.6 μL of 10 mM ATP (Sigma, Catalog No. A7699) and 6.4 μL of the 1 mM PLK1 substrate, CHK2-derived peptide Biotin-SSLETVSTQELYSIP (custom synthesized at Anaspec) SEQ ID: No. 1, to 4691 μL of the buffer solution A. The concentration of the ATP in solution B is 5.44 μM (1.36×); the concentration of the PLK1 substrate in solution B is 1.36 μM (1.36×).
Compound solutions C of varying concentrations for each compound were prepared by dissolving each compound in dimethylsulfoxide (DMSO, Sigma, Catalog No. D2650) to varying concentrations, followed by adding 2 μL of each solution to 38 μL of the buffer solution A, thereby forming 10× compound solutions in 5% DMSO.
A PLK1 solution D was prepared by adding 8.4 μL of 100 μg/mL PLK1 (Cell Signalling, Catalog No. 7728) to 1392 μL of the buffer solution A, thereby forming 0.6 μg/mL (6×) PLK1 solution.
The aqueous 1.36× substrate solution B was added to each well (44 μL/well) resulting in binding of the substrate to the plate via biotin/neutravidin interaction. Then 10× compound solutions C for each tested compound at each tested concentration were added to each well (6 μL/well). Next, 6×PLK1 solution D was added to each well (10 μL/well).
The final concentrations of tested compounds in each well were 10 μM, 3.3 μM, 1.1 μM, 0.36 μM, 0.12 μM, 0.04 μM, 0.014 μM, and 0.005 μM.
The obtained reaction mixtures were incubated in the wells for 45 minutes at room temperature, allowing PLK1-catalyzed phosphorylation of the substrate to proceed. The plates were then washed with 1×PBST solution using a plate washer, such that the bound phosphorylated or unphosphorylated substrate remains attached to the wells upon washing.
The washed plates were developed by treating the plates with a primary antibody that is specific for the phosphorylated substrate, followed by treatment with a secondary antibody that is specific for the primary antibody, and that is capable of catalyzing a reaction that results in a chemiluminescent readout. The chemiluminescent readout was used to quantify the substrate phosphorylation, and, consequently, to determine IC50 values for PLK1 inhibition, and was measured using a luminometer (Perkin Elmer/Wallac plate reader). The plate development protocol is described below.
A mixed antibody solution E was prepared by adding 1 μL of the primary antibody, rabbit p-CHK2(T68) (Rockland, Catalog No. 401280), and 1 μL of the secondary antibody, HRP-goat anti-rabbit IgG (Jackson Immunoresearch Catalog No. 111-035-003) to 10000 μL of 0.1% BSA in 1×PBST buffer. […]

PLK1 [2] = target: T1, PLK1; assay: Cellular PLK1 assay in K562 cells overexpressing CDC25C; format: cell-based; parameters: endogenous in cells; host or cells: K562 (human chronic myelogenous leukemia) overexpressing CDC25C, nocodazole-arrested; conditions: nocodazole arrested, cdc25c p-Ser198 readout
Experimental: as §1
1. Culturing of K562 Cells
Human chronic myelogenous leukemia K562 cells (American Tissue Culture Collection) overexpressing CDC25C, were grown in Growth Medium having the following composition: Iscove Dulbecco's Modified Eagle's Medium (“Iscove DMEM”, Mediatech/Cellgro, Cat. #10-013-CV), 10% Fetal Bovine Serum (“FBS”, SAFC Biosciences, Cat. #12106-500M), and 1% penicillin/streptomycin (“pen-strep”, Mediatech/Cellgro, Cat. #30-002-CI). The cells were plated in 96 well round bottom tissue culture plates (Fisher, Costar* Cell Culture plates, Cat. #07-200-95) at 100,000 cells per 50 μL of Growth Medium per well. Nocodazole (Sigma, Cat. # M1404) was added to the growth media to arrest the cells in the G2 or M phase, at 333 nM concentration. The cells were incubated with nocodazole for 18 hours at 37° C. prior to addition of tested compounds.
2. Treatment of Cells with the Tested Compounds
Solutions of tested compounds in DMSO at different concentrations were prepared using serial dilutions. Each compound was tested at 8 concentration points, 10 μM, 3.3 μM, 1.11 μM, 0.37 μM, 0.12 μM, 0.04 μM, 0.014 μM, 0.005 μM, duplicate replicates.
Two controls were performed: “DMSO alone” control in which nocodazole and DMSO were present but no compounds were added, and “nocodazole alone” control, in which only nocodazole was present, but neither DMSO nor compounds were added.
The solutions of compounds were prepared by diluting 10 mM compound 1:1 in DMSO (5 μL 10 mM compound and 5 μL DMSO), followed by 1:3 serial dilutions of compound in DMSO performed by diluting 3 μL of higher concentration compound solution serially into 6 μL DMSO to give 3-fold dilutions. Next, 3 μL of each compound solution at each concentration was transferred to 750 μL of Growth Medium. In “DMSO alone” control 3 μL of DMSO alone was added to 750 μL of Growth Medium.
After the diluted compounds were mixed well in the Growth Medium, 50 μL of each compound solution in DMSO/Growth Medium was transferred to each well of the 96-plate containing cells in 50 μL of Growth Medium/Nocodazole.
The cells and compounds were incubated for 120 minutes at 37° C., in an atmosphere containing 5% CO2.
3. Fixation and Permeabilization of the Cells
After the cells were incubated with compounds, the cells were spun down at 1,000 rpm for 5 minutes at 4° C. and supernatants were removed by flicking the plates. Cells were then washed with 200 μl of ice cold PBS, spun down again and supernatants removed. Cells were then fixed and permeabilized by addition of 100 μL/well of Fixation and Permeabilization Solution (1× buffer provided in BD Biosciences Cytofix/Cytoperm™ Fixation/Permeabilization kit, Cat. #554714) and incubation for 20 minutes at room temperature. The fixative was then removed by centrifugation (5 minutes at 2,000 rpm), and plates were flicked to remove the fixative and washed twice, each time with 200 μL/well BD Perm/Wash buffer (10× concentrate provided in BD Biosciences Cytofix/Cytoperm™ Fixation/Permeabilization kit, Cat. #554714, 1× buffer prepared by dilution in distilled H2O).
Cells were spun down at 1,000 rpm for 5 minutes at 4° C. Supernatants were removed by flicking the plates. A solution of a primary antibody specific for cdc25cp-Ser198 was prepared by diluting Rabbit cdc25c (Ser198) antibody (Cell Signaling, #9529L) 1:50 in a Fluorescence Activated Cell Sorting (“FACS”) Buffer (2% FBS in PBS). The cell pellets were resuspended in 50 μL of the primary antibody solution. 50 μL of FACS buffer was added to unstained controls. Staining was allowed to proceed overnight at room temperature.
The plates were then washed by addition of 200 μL of FACS Buffer to each well, were centrifuged and the supernatant was removed. […]

[3] = ELISA, CHK2-derived peptide substrate, read-out: PLK1 IC50 (μM) biochemical assay
[4] = read-out: IC50 in biochemical in vitro PLK1 ELISA assay (less than 10 μM)
[5] = read-out: IC50 in biochemical ELISA assay (less than 0.01 μM)

T1 sequence (P53350 whole entry): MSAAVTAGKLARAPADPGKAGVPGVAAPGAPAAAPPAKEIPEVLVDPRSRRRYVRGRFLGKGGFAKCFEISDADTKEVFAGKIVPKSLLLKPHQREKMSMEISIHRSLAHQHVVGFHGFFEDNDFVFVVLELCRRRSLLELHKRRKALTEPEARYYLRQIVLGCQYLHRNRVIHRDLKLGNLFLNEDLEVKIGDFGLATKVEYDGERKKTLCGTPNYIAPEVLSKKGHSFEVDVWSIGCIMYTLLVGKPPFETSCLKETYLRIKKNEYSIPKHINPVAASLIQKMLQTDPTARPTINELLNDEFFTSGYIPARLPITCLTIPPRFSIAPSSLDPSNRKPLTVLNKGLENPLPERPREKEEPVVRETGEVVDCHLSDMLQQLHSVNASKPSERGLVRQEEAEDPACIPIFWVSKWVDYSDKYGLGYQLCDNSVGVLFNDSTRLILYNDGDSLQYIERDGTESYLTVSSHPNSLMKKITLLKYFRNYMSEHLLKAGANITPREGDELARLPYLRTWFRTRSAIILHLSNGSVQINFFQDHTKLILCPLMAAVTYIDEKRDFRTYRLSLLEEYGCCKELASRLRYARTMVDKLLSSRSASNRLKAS

SMILES | IC50 (PLK1 [1]; [3]) [µM] | IC50 (PLK1 [1]; [4]) [µM] | IC50 (PLK1 [2]) [µM] | IC50 (PLK1 [1]; [5]) [µM]
CCCN1CCOc2ccc(Nc3nc(Nc4ccc(N5CC6CC5CN6C(C)=O)c(C)c4)ncc3C)nc21 (stereo not drawn) [compound 39, 1-(5-(2-methyl-4-(5-methyl-4-(4-propyl-3,4-dihydro-2H-pyrido[3,2-b][1,4]oxazin-6-ylamino)pyrimidin-2-ylamino)phenyl)-2,5-diazabicyclo[2.2.1]heptan-2-yl)ethanone] | 0.5 to 5 | < 10 | 0.5 to 5 | 
CN1CC2CC1CN2c1cccc(Nc2ncc(F)c(Nc3ccc4c(n3)NCCO4)n2)c1 (stereo not drawn) [compound 42, N4-(3,4-dihydro-2H-pyrido[3,2-b][1,4]oxazin-6-yl)-5-fluoro-N2-(3-(5-methyl-2,5-diazabicyclo[2.2.1]heptan-2-yl)phenyl)pyrimidine-2,4-diamine] | < 0.5 | < 10 | < 0.5 | < 0.01
Cc1cc(Nc2ncc(C)c(Nc3ccc4c(c3)N(Cc3ccccn3)C(=O)C(F)(F)O4)n2)ccc1N1CC2CC1CN2C (stereo not drawn) [compound 139, 2,2-difluoro-6-(5-methyl-2-(3-methyl-4-(5-methyl-2,5-diaza-bicyclo[2.2.1]heptan-2-yl)phenyl-amino)pyrimidin-4-ylamino)-4-(pyridin-2-ylmethyl)-2H-benzo[b][1,4]oxazin-3(4H)-one] | ≥ 10 |  | 5 to 10 | 
CN1CCN(c2cccc(Nc3ncc(F)c(N(c4ccc5c(n4)NCCO5)C4CCCC4)n3)c2)CC1 [compound 54, N4-cyclopentyl-N4-(3,4-dihydro-2H-pyrido[3,2-b][1,4]oxazin-6-yl)-5-fluoro-N2-(3-(4-methylpiperazin-1-yl)phenyl)pyrimidine-2,4-diamine] | 5 to 10 | < 10 | ≥ 10 | 
CC(C)c1cc(Nc2ncc(F)c(Nc3ccc4c(n3)NCCO4)n2)cc(N2CCN(C)CC2)c1 [compound 46, N4-(3,4-dihydro-2H-pyrido[3,2-b][1,4]oxazin-6-yl)-5-fluoro-N2-(3-isopropyl-5-(4-methylpiperazin-1-yl)phenyl)pyrimidine-2,4-diamine] | < 0.5 | < 10 | 0.5 to 5 | 
CCN1C(=O)COc2ccc(Nc3nc(Nc4ccc(N5CCN(S(C)(=O)=O)CC5)cc4)ncc3C)cc21 [compound 196, 4-ethyl-6-(5-methyl-2-(4-(4-(methyl-sulfonyl)piperazin-1-yl)phenylamino)pyrimidin-4-ylamino)-2H-benzo[b][1,4]oxazin-3(4H)-one] | 0.5 to 5 | < 10 | 5 to 10 | 

Now from value to molecule:

IC50 (PLK1 [1]; [3]) [µM] | IC50 (PLK1 [1]; [4]) [µM] | IC50 (PLK1 [2]) [µM] | IC50 (PLK1 [1]; [5]) [µM] | SMILES
< 0.5 | < 10 | 0.5 to 5 | < 0.01 | C#CCN1C(=O)COc2ccc(Nc3nc(Nc4cccc(N5CCN(C)CC5)c4)ncc3F)nc21 [compound 128, 6-(5-fluoro-2-(3-(4-methylpiperazin-1-yl)phenylamino)pyrimidin-4-ylamino)-4-(prop-2-ynyl)-2H-pyrido[3,2-b][1,4]oxazin-3(4H)-one]
< 0.5 | < 10 | 0.5 to 5 |  | O=C1COc2ccc(Nc3nc(Nc4cccc(N5CCNCC5)c4)ncc3F)cc2N1 [compound 18, 6-(5-fluoro-2-(3-(piperazin-1-yl)phenylamino)pyrimidin-4-ylamino)-2H-benzo[b][1,4]oxazin-3(4H)-one]
< 0.5 | < 10 | < 0.5 |  | CC(C)c1ccc(N2CCN(C)CC2)cc1Nc1ncc(F)c(Nc2ccc3c(n2)NC(=O)CO3)n1 [compound 43, 6-(5-fluoro-2-(2-isopropyl-5-(4-methylpiperazin-1-yl)phenylamino)pyrimidin-4-ylamnino)-2H-pyrido[3,2-b][1,4]oxazin-3(4H)-one]
< 0.5 | < 10 | 0.5 to 5 |  | CN1CCN(c2cccc(Nc3ncc(F)c(Nc4ccc5c(n4)N(CC4CCC4)C(=O)CO5)n3)c2)CC1 [compound 109, 4-(cyclobutylmethyl)-6-(5-fluoro-2-(3-(4-methylpiperazin-1-yl)phenylamino)pyrimidin-4-ylamino)-2H-pyrido[3,2-b][1,4]oxazin-3(4H)-one]
≥ 10 |  | 0.5 to 5 |  | CN1C(=O)COc2ccc(Nc3nc(Nc4ccc(N5CCN(S(C)(=O)=O)CC5)cc4)ncc3Cl)cc21 [compound 197, 6-(5-chloro-2-(4-(4-(methylsulfonyl)piperazin-1-yl)phenyl-amino)pyrimidin-4-ylamino)-4-methyl-2H-benzo[b][1,4]oxazin-3(4H)-one]
